Experimental data published in ChEMBL document CHEMBL1201862, “PubChem BioAssay data set” (2004).
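Exposure lasted 48 hours, with cells grown in 96-well plates and compounds tested at five concentrations. Here, GI50 denotes the concentration required for 50% inhibition of growth.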 The source made the active and inactive calls. Cut-off read from the data, not from the text of the source: active = GI50 up to about 1.1 µM and inactive = higher.

Assays:
Test in all cases: inhibition of tumour cell growth, NCI panel, 48 h
UACC-257 = system: UACC-257
SK-MEL-28 = system: SK-MEL-28
NCI-H460 = system: NCI-H460
KM12 = system: KM12
BT-549 = system: BT-549
EKVX = system: EKVX
HOP-92 = system: HOP-92
ACHN = system: ACHN
TK-10 = system: TK-10
MDA-MB-435 = system: MDA-MB-435
NCI-H522 = system: NCI-H522
LOX IMVI = system: LOX IMVI
SF-295 = system: SF-295
IGROV-1 = system: IGROV-1
SF-268 = system: SF-268
OVCAR-8 = system: OVCAR-8
HOP-62 = system: HOP-62
786-0 = system: 786-0
T47D = system: T47D
SK-MEL-2 = system: SK-MEL-2
CCRF-CEM = system: CCRF-CEM
OVCAR-4 = system: OVCAR-4
SR = system: SR
U-251 = system: U-251
K562 = system: K562
MOLT-4 = system: MOLT-4
A549 = system: A549
OVCAR-5 = system: OVCAR-5
HL-60 = system: HL-60
NCI-H226 = system: NCI-H226
HT-29 = system: HT-29
CAKI-1 = system: CAKI-1
SK-MEL-5 = system: SK-MEL-5
MCF7 = system: MCF7
PC-3 = system: PC-3
NCI-H23 = system: NCI-H23
M14 = system: M14
NCI/ADR-RES = system: NCI/ADR-RES
UO-31 = system: UO-31
UACC-62 = system: UACC-62
SNB-75 = system: SNB-75
OVCAR-3 = system: OVCAR-3
Malme-3M = system: Malme-3M
Hs-578T = system: Hs-578T
SNB-19 = system: SNB-19
SN12C = system: SN12C
RPMI-8226 = system: RPMI-8226
SK-OV-3 = system: SK-OV-3
HCT-15 = system: HCT-15
COLO 205 = system: COLO 205
SW-620 = system: SW-620
SF-539 = system: SF-539
DU-145 = system: DU-145
MDA-MB-231 = system: MDA-MB-231
RXF 393 = system: RXF 393
A498 = system: A498
HCC 2998 = system: HCC 2998

For `O=C(O)C12CCC(CC1=O)C2` (centres undefined), the GI50 (UACC-257) was > 100 µM (inactive), the GI50 (SK-MEL-28) was > 100 µM (inactive) and the GI50 (NCI-H460) was > 100 µM (inactive). For the same compound, the GI50 (KM12) was > 100 µM (inactive), the GI50 (BT-549) was > 100 µM (inactive) and the GI50 (EKVX) was > 100 µM (inactive). The GI50 (HOP-92) was > 100 µM (inactive), the GI50 (ACHN) was > 100 µM (inactive) and the GI50 (TK-10) was > 100 µM (inactive). The GI50 (MDA-MB-435) was > 100 µM (inactive), the GI50 (NCI-H522) was > 100 µM (inactive) and the GI50 (LOX IMVI) was > 100 µM (inactive). The GI50 (SF-295) was > 100 µM (inactive), the GI50 (IGROV-1) was > 100 µM (inactive) and the GI50 (SF-268) was > 100 µM (inactive). For the same compound, the GI50 (OVCAR-8) was > 100 µM (inactive), the GI50 (HOP-62) was > 100 µM (inactive) and the GI50 (786-0) was > 100 µM (inactive). The GI50 (T47D) was > 100 µM (inactive), the GI50 (SK-MEL-2) was > 100 µM (inactive) and the GI50 (CCRF-CEM) was > 100 µM (inactive). The GI50 (OVCAR-4) was > 100 µM (inactive), the GI50 (SR) was > 100 µM (inactive) and the GI50 (U-251) was > 100 µM (inactive). The GI50 (K562) was > 100 µM (inactive), the GI50 (MOLT-4) was > 100 µM (inactive) and the GI50 (A549) was > 100 µM (inactive). For the same compound, the GI50 (OVCAR-5) was > 100 µM (inactive), the GI50 (HL-60) was > 100 µM (inactive) and the GI50 (NCI-H226) was > 100 µM (inactive). For the same compound, the GI50 (HT-29) was > 100 µM (inactive), the GI50 (CAKI-1) was > 100 µM (inactive) and the GI50 (SK-MEL-5) was > 100 µM (inactive). The GI50 (MCF7) was > 100 µM (inactive), the GI50 (PC-3) was > 100 µM (inactive) and the GI50 (NCI-H23) was > 100 µM (inactive). The GI50 (M14) was > 100 µM (inactive), the GI50 (NCI/ADR-RES) was > 100 µM (inactive) and the GI50 (UO-31) was > 100 µM (inactive). For the same compound, the GI50 (UACC-62) was > 100 µM (inactive), the GI50 (SNB-75) was > 100 µM (inactive) and the GI50 (OVCAR-3) was > 100 µM (inactive). For the same compound, the GI50 (Malme-3M) was > 100 µM (inactive), the GI50 (Hs-578T) was > 100 µM (inactive) and the GI50 (SNB-19) was > 100 µM (inactive). The GI50 (SN12C) was > 100 µM (inactive), the GI50 (RPMI-8226) was > 100 µM (inactive) and the GI50 (SK-OV-3) was > 100 µM (inactive). For the same compound, the GI50 (HCT-15) was over 100 µM, the GI50 (COLO 205) was > 100 µM (inactive) and the GI50 (SW-620) was > 100 µM (inactive).
For `CN1C2CCC1C(CO)C(=O)C2` (centres undefined), the GI50 (UACC-257) was 85.1 µM (inactive), the GI50 (SK-MEL-28) was > 100 µM (inactive) and the GI50 (NCI-H460) was > 100 µM (inactive). The GI50 (SF-539) was 23.2 µM (inactive), the GI50 (KM12) was > 100 µM (inactive) and the GI50 (BT-549) was > 100 µM (inactive). The GI50 (HOP-92) was > 100 µM (inactive), the GI50 (ACHN) was 38.6 µM (inactive) and the GI50 (TK-10) was 22.9 µM (inactive). The GI50 (MDA-MB-435) was > 100 µM (inactive), the GI50 (NCI-H522) was 16.1 µM (inactive) and the GI50 (LOX IMVI) was > 100 µM (inactive). The GI50 (SF-295) was > 100 µM (inactive), the GI50 (IGROV-1) was > 100 µM (inactive) and the GI50 (SF-268) was > 100 µM (inactive). For the same compound, the GI50 (OVCAR-8) was 50.9 µM (inactive), the GI50 (HOP-62) was > 100 µM (inactive) and the GI50 (T47D) was 21 µM (inactive). For the same compound, the GI50 (SK-MEL-2) was > 100 µM (inactive), the GI50 (CCRF-CEM) was 10.2 µM (inactive) and the GI50 (OVCAR-4) was > 100 µM (inactive). The GI50 (DU-145) was > 100 µM (inactive), the GI50 (SR) was 26.1 µM (inactive) and the GI50 (U-251) was > 100 µM (inactive). For the same compound, the GI50 (K562) was 24.6 µM (inactive), the GI50 (MOLT-4) was 18.2 µM (inactive) and the GI50 (HL-60) was 3.56 µM (inactive). For the same compound, the GI50 (NCI-H226) was > 100 µM (inactive), the GI50 (MDA-MB-231) was > 100 µM (inactive) and the GI50 (RXF 393) was 57.4 µM (inactive). For the same compound, the GI50 (CAKI-1) was 32.7 µM (inactive), the GI50 (SK-MEL-5) was > 100 µM (inactive) and the GI50 (MCF7) was 22.6 µM (inactive). For the same compound, the GI50 (PC-3) was > 100 µM (inactive), the GI50 (NCI-H23) was > 100 µM (inactive) and the GI50 (NCI/ADR-RES) was > 100 µM (inactive). The GI50 (UACC-62) was > 100 µM (inactive), the GI50 (SNB-75) was > 100 µM (inactive) and the GI50 (OVCAR-3) was > 100 µM (inactive). For the same compound, the GI50 (Malme-3M) was 28.9 µM (inactive), the GI50 (Hs-578T) was > 100 µM (inactive) and the GI50 (A498) was > 100 µM (inactive). For the same compound, the GI50 (RPMI-8226) was 21.3 µM (inactive), the GI50 (SK-OV-3) was > 100 µM (inactive) and the GI50 (HCC 2998) was > 100 µM (inactive). For the same compound, the GI50 (HCT-15) was 24.9 µM, the GI50 (COLO 205) was 17.6 µM (inactive) and the GI50 (SW-620) was 20.4 µM (inactive).
